Reference: US20200352912A1, “ANTIMICROBIAL COMPOSITIONS AND METHODS OF USING THE SAME” (The Board Of Supervisors Of Louisiana State University And …, priority 2018, published 2020)
Entries after “also recorded” stand apart in the source; their conditions may differ.

Assays:
[1] = test system: C. albicans and S. aureus; test: mouse C. albicans-S. aureus polymicrobial intra-abdominal infection; assay type: in vivo, mice
Protocol: Effect of inhibition of EP4 receptor signaling on survival. Mice received either vehicle or EP4 receptor antagonist at a dose of 10 mg/kg by i.p. injection as indicated in Materials and Methods. Mortality was assessed using Kaplan Meier test (***P<0.001; n=20/group) compared to control groups. Data shown are representative of three replicate experiments.
The mouse peritonitis/intra-abdominal model was performed as previously described (8). In brief, for MRSA peritonitis, mice were injected intraperitoneally (i.p.) with 4×10^6 CFU or 5×10^6 CFU or 2×10^7 CFU of S. aureus in 0.2 ml of PBS containing 3% hog gastric mucin type III (Sigma Aldrich). Mice injected i.p. with 0.2 ml of mucin/PBS served as a negative infection control. For the intra-abdominal infection with C. albicans and S. aureus, mice were injected i.p. with 7×10^6 CFU of C. albicans and 8×10^7 CFU of S. aureus (8.7×10^7 CFU total) in 0.2 ml of PBS. After inoculation, mice were observed over 10 days for signs of morbidity (hunched posture, inactivity, lethargy, and ruffled fur) and mortality. […] In the MRSA peritonitis experiments, mice were sacrificed at 24 or 48 h post-inoculation to assess microbial burden. Peritoneal cavities were lavaged by injection of 2 ml of sterile PBS followed by gentle massaging of the peritoneal cavity. Peritoneal lavage fluid then was removed using a pipette inserted into a small incision in the abdominal cavity. Spleens were removed, weighed, and mechanically homogenized prior to CFU analysis. Microbial burdens in the peritoneal lavage fluid and spleen were enumerated as described above.
Each inhibitor was prepared fresh as a concentrated stock (20-25 mg/ml) in DMSO and diluted to a working concentration of […] in sterile PBS (final DMSO concentration, 2.3%). A sham treatment containing only 2.3% DMSO in PBS was also prepared. For the MRSA peritonitis study, the EP4 receptor antagonist was administered 2 h after S. aureus inoculation and once daily thereafter until day 4 post inoculation. For the IAI co-infection study, COX inhibitor or vehicle control was administered 4 h prior to and 4 and 8 h after inoculation with C. albicans and S. aureus while the EP receptor antagonists were administered daily starting 1 day prior to and 5 days after infection. All other procedures were performed as described above. Control groups received the vehicle at the same dose interval.
In a final set of experiments, we evaluated the ability of L-161, 982 to reduce lethality in co-infected mice. Mice co-inoculated with the standard 7×106 C. albicans CFU and 8×107 S. aureus CFU (8.7×10^7 CFU total) were treated with L-161, 982 (10 mg/kg) 2 h post infection and once daily afterwards until day 5. […]

S. aureus NRS383 = test: planktonic antimicrobial assay (OD600 growth); assay type: cell-based, Staphylococcus aureus; details: 100 μg/ml (inhibitor-specific concentrations b175), OD600 up to 24 h
Protocol: Effect of COX enzyme inhibitors or PGE2 EP receptor antagonists on microbial growth. The antimicrobial activity of selective COX enzyme inhibitor or PGE2 EP receptor antagonist on the growth of C. albicans DAY185 (A), S. aureus NRS383 (B) and MRSA and MSSA clinical isolates (C). Growth of C. albicans and S. aureus was monitored for up to 24 h in medium alone or supplemented with DMSO or EP receptor antagonists or COX enzyme inhibitor at physiologically relevant concentrations. Data shown are representative of three independent experiments.
C. albicans and S. aureus were grown as described above. […] Cells were grown with shaking as described above, and 1 ml aliquots were removed each hour in duplicate and optical density at 600 nm measured (OD600) by spectrophotometer (Biomate 3S, Thermo Scientific).

[2] = test system: C. albicans and S. aureus; details: mouse, in vivo; cited from earlier work
[3] = test system: S. aureus in polymicrobial biofilms; details: 1,600 μg/ml; cited from earlier work

With `CC(C(=O)Nc1cc(C#N)ccc1CCCC(=O)O)c1ccc(F)c2ccccc12` (centres unmarked) [ONO AE3 208] as the molecule, how does the effect on survival ([1]; 10 mg/kg i.p.) read?
The effect on survival was “no effect; also recorded: did not enhance survival”.

What about the “antimicrobial effect on S. aureus in vivo” value ([1]; mouse, in vivo) of the same molecule?
Its value is “no antimicrobial effect”.

What about the “growth of S. aureus” value (S. aureus NRS383) of the same molecule?
The value was “no antimicrobial effect”.

With `COc1ccc2c(c1)c(CC(=O)O)c(C)n2C(=O)c1ccc(Cl)cc1` [indomethacin] as the molecule, how does the “mortality of co-infected mice” value [2] read?
The value was “prevented mortality”.

Which “viability of S. aureus in polymicrobial biofilms” value [3] does the source give for `CN[C@H](CC(C)C)C(=O)N[C@H]1C(=O)N[C@@H](CC(N)=O)C(=O)N[C@H]2C(=O)N[C@H]3C(=O)N[C@H](C(=O)N[C@H](C(=O)O)c4cc(O)cc(O)c4-c4cc3ccc4O)[C@H](O)c3ccc(c(Cl)c3)Oc3cc2cc(c3O[C@@H]2O[C@H](CO)[C@@H](O)[C@H](O)[C@H]2O[C@H]2C[C@](C)(N)[C@H](O)[C@H](C)O2)Oc2ccc(cc2Cl)[C@H]1O` [vancomycin] here?
The value was “no effect on viability”.
